# According to ChEMBL document CHEMBL1944547, “Ethionamide boosters. 2. Combining bioisosteric replacement and structure-based drug design to solve pharmacokinetic issues in a series of potent 1,2,4-oxadiazole EthR inhibitors” (J Med Chem, 2012):
# How the values were obtained:
# in vitro = conditions: CD-1, mouse, liver microsomes
# [1] = Solubility of the compound in PBS buffer at pH 7.4 after 24 hrs by LC-MS analysis; format: physicochemical
Compound,half-life at 1 µM (in vitro) [min],solubility at 24 h [1] [µg/mL]
COc1ccc2nc(-c3noc(C4CCN(C(=O)CCC(F)(F)F)CC4)n3)sc2c1,6,6
O=C(CCCC(F)(F)F)N1CCC(c2nc(-c3nccs3)no2)CC1,81,

# Now from value to compound:
half-life at 1 µM (in vitro) [min],solubility at 24 h [1] [µg/mL],Compound
5,,O=C(CCC(F)(F)F)N1CCC(c2nc(-c3cccs3)no2)CC1
34,300,O=C(CCC(F)(F)F)N1CCC(c2nc(-c3nccs3)no2)CC1
,40,O=C(CCC(F)(F)F)N1CCC(c2nc(-c3ccccc3)no2)CC1
